Reference: ChEMBL document CHEMBL3507680, “University of Dundee, Gates Library screen for HepG2 cell viability”

Experiment: Human HepG2 cell viability assay in 384 well format
Assay type: toxicity, cell-based
Set-up: dose 125 nL, time 70.5 hour; cytotoxicity at 70.5 h: concentration not given beside the values
Settings: HepG2 cells, read-out: Inhibition

Structure (SMILES) | cytotoxicity at 70.5 h [%]
Cc1cc(C(=O)N2CCn3c(COCC4CCCC4)cnc3C2C)on1 (stereo not drawn) | -15.4
c1csc(CN2C[C@H]3CCC[C@@]3(COCC3CCOCC3)C2)n1 | 1.66
CCn1nc(C)cc1S(=O)(=O)N1CCC2(CCCN(C(C)C)C2=O)C1 (stereo not drawn) | -1.6
COc1c(C)cnc(CSc2nnc(N)s2)c1C | -3.12
CC(C)c1cc(N2CCC(C(C)N3CCCC3)CC2)n2nccc2n1 (stereo not drawn) | -3.16
O=C(c1cccn2ccnc12)N1CCCN(c2cccnn2)CC1 | -20.2
CCc1nn(C)c2[nH]nc(NC(=O)c3cccnc3NC(C)C)c12 | -50.3
Cc1noc(CN2CCC(Cc3ccc(F)cc3)CC2)n1 | -9.61
CCn1nc(C)c2nc(C(C)C)nc(N3CCN(C)CC3)c21 | 29.8
N#Cc1ccc(NCCc2n[nH]c(=O)[nH]2)cc1Cl | -10.2
N#Cc1ccc(CN2CCCC2Cn2cccn2)c(F)c1 (stereo not drawn) | 4.66
CN1CCN(CCNC(=O)c2sccc2C2CC2)CC1 | -2.66
O=C(NCCc1ccncc1)C1CCN(Cc2ccco2)CC1 | 10.1
Cc1ccc(-c2nc(CSCCC(=O)NC(N)=O)co2)cc1 | -11.4
Cn1nccc1-c1nnn2c1COCC(CNC1CCOCC1)C2 (stereo not drawn) | 0.0787
COc1ccc(CNCc2c(C)nn(C)c2N2CCOCC2)cc1 | -3.63
CN(C)CC(=O)N1CCc2cccc(S(=O)(=O)N3CCOCC3)c2C1 | 0.694
Cc1noc(CCCC(=O)NCC2CCS(=O)(=O)C2)n1 (stereo not drawn) | 1.41
COc1ccccc1OC1CN(C(=O)Cc2c(C)nc3ccccn23)C1 | 2.44
CC1=C(c2ccc(F)cc2)S(=O)(=O)N=C1N1CCc2ccccc21 | -4.74
Cc1nc(-c2cccc(C(=O)O)c2)c[nH]1 | 15.3

Structure (SMILES) | cytotoxicity at 70.5 h [%]
CC(O)CN1CCN(Cc2csc(-c3cnn(C)c3)n2)CC1 (stereo not drawn) | -9.86
O=C1CO[C@@H]2CN(Cc3ccncc3)C[C@H]2N1Cc1ccncc1 | -7.94
Cn1cccc1C(=O)N1CCO[C@@H]2CN(Cc3ccco3)C[C@@H]2C1 | -5.04
c1cnc(NCC2Cn3nnc(-c4ccsc4)c3CO2)nc1 (stereo not drawn) | -8.81
CCC(=O)N1CCCC1(C)c1nc(C)no1 (stereo not drawn) | -6.82
Cn1nccc1NC(=O)Cn1ccc(-c2ccc3c(c2)OCO3)n1 | -22.6
Cc1cc(-c2cnc(N3CCCC3)nc2-c2ccc(C)s2)on1 | -6.38
COc1ccc(C(=O)N2CCC(Nc3cccnn3)CC2)c(OC)c1 | -6.9
CC(C)(C)c1nnc(CN2CCN(S(C)(=O)=O)CC2)o1 | -2.04
O=C(NC1CCCC1)c1ccnc(C2CCNCC2)c1 | -1.39
NS(=O)(=O)c1ccc(NCc2ccccc2)cc1C(F)(F)F | 4.82
O=C1CCCN1CC1CN(C(=O)C2CCOCC2)Cc2nccn2C1 (stereo not drawn) | -1.66
CCS(=O)(=O)c1ccc(N2CCC(N)CC2)cc1 | -1.97
CCc1c(C)[nH]c(C(C)(N)CC)nc1=O (stereo not drawn) | -10.4
CN(C)CCN(C)C[C@H]1CN2CC[C@H]1C[C@@H]2CNC(=O)Nc1ccsc1 | -2.68
Cc1csc(C(=O)N2CC(S(=O)(=O)C3CCCCC3)C2)c1 | -6.45
NC(=O)c1ccc2c(c1)nc1n2CCN(Cc2ccccc2)C1 | -15.9
Cc1cc(-c2cnc(N3CCSCC3)nc2-c2ccc(C)s2)on1 | -7.01
CCc1cn[nH]c1C1CCN(c2cc(C)c3cccc(OC)c3n2)CC1 | 0.472
CNC(=O)CCNC(=O)c1cccc(Cn2nc(C)cc2C)c1 | -3.48
COCc1noc(-c2ccc(N3CCCCC3CO)nc2)n1 (stereo not drawn) | -6.84

Structure (SMILES) | cytotoxicity at 70.5 h [%]
Cn1ccc(CN2CCC3(CCCN3CC3CC3)CC2)n1 | -6.07
Cn1ccc(C(=O)N2CCN(c3ncccn3)CC2)cc1=O | -20.4
CC(C)NC(=O)NCCCOC1CCOCC1 | -4.28
CC(C)(C)c1cc(C(=O)N2CCC(c3cnccn3)CC2)[nH]n1 | -5.82
CS(=O)(=O)c1cccc(C(N)c2ccc(Cl)cc2)c1 (stereo not drawn) | -4.71
CN(C)C(=O)N1CCc2onc(C(=O)Nc3cccnc3)c2C1 | -19.2
COCC(O)CNC(=O)Nc1ccc(Cl)cc1-n1cccc1 (stereo not drawn) | -7.23
CCc1nnc(Nc2cccc(C3CCN(S(=O)(=O)N(C)C)CC3)n2)s1 | -6.79
Cc1nn(C(C)C)c2cnn(CC(=O)N3CCSCC3)c12 | -1.45
CC(C)CNC(=O)c1sccc1-n1cnnn1 | -7.28
NC(=O)C1CCN(C(=O)Cn2ccc3cc(Br)ccc32)CC1 | -9.96
Cc1nc(C(=O)N2CCOC(Cc3ccc(F)cc3)C2)co1 (stereo not drawn) | -3.27
Cc1nc(N2CCCC2)nc2c1CCN(C(=O)N(C)C)CC2 | -16.7
CCc1nn(C)c(Cl)c1CN1CCCC2(C1)CN(C)C(=O)O2 (stereo not drawn) | -11.8
CNS(=O)(=O)c1cc(C(=O)N2CCCCCC2CC(C)C)co1 (stereo not drawn) | -3.95
O=C(c1cccc(F)c1)N1CCc2ncc(Cn3cccn3)n2CC1 | -11
Cc1nn(CCC#N)c(C)c1[C@@H]1C=C[C@@H](NCc2cccc(Cl)c2)C1 | -4.45
Cn1cccc1CN1CCC2(CCCN(C(=O)Cc3cccnc3)C2)C1 (stereo not drawn) | 24.8
Cc1ccccc1C1(CNC(=O)NCCc2nnc3n2CCC3)CC1 | -17.5
O=C(NCc1cc[nH]n1)NCC(c1ccc(F)cc1)N1CCOCC1 (stereo not drawn) | -12.9
Cc1ccccc1OCCC(=O)N1CCC(c2nncn2C)CC1 | -0.859

Structure (SMILES) | cytotoxicity at 70.5 h [%]
CC(=O)N1CCOCC2(CCCNC2)C1 (stereo not drawn) | -9.88
COCC(=O)N1CCn2c(CN3CCN(C)CC3)cnc2C1 | -3.31
N#Cc1c(-c2ccccc2)csc1N | -22.3
CC(C)(N)C(=O)N1CCCC(C(=O)c2ccc(C(C)(C)C)cc2)C1 (stereo not drawn) | -3.3
O=C(CC1CCN(CCc2ccccc2)CC1)NC1CCOCC1 | -1.43
CCC(=O)N1CCCN(Cc2cc(F)cc(Br)c2)CC1 | 16.2
CN(C)C(=O)c1cccnc1SCc1ccccc1Cl | 1.28
Cc1[nH]nc2ncc(C(=O)N3CCN(C(C)(C)C)CC3)cc12 | -0.02
Cc1nc(C)n(CC2CCCN(Cc3nc(C4CC4)no3)C2)n1 (stereo not drawn) | -1.73
O=C1N(CCc2ccccc2)CCCC12CCN(C(CO)CO)C2 (stereo not drawn) | -4.14
Cc1nc2ccc(C(=O)N3CCn4c(C)nnc4C3)cc2nc1C | -5.63
COc1ccc(C)cc1NC(=O)Nc1cnc(O)nc1O | -6.34
O=C(O)C1(Cc2ccc(F)cc2F)CCCN(Cc2ccccn2)C1 (stereo not drawn) | -5.82
O=C(O)CSC1CCc2ccccc2NC1=O (stereo not drawn) | -14.7
O=C(Nc1ccccc1)C1CCCN(C(=O)Cn2cncn2)C1 (stereo not drawn) | -0.859
CN(C)C1CCN(C(=O)CCc2cc(Br)cs2)CC1 | -0.796
O=C(COCc1nc(-c2ccncc2)no1)N1CCCCCC1 | -5.87
c1ccc(Cc2noc(CCNC3CCOC4(CCOCC4)C3)n2)cc1 (stereo not drawn) | 11.9
COc1cc(F)c(C(C)NC(=O)c2cccnc2C)cc1OC (stereo not drawn) | 2.35
O=C1CCC[C@]2(CN(S(=O)(=O)N3CCCCC3)C[C@H]2c2cccnc2)N1 | -6.21
